Data: patent publication US20260103444A1, “8-HYDROXYQUINOLINE COMPOUND AND USE THEREOF” (OSAKA UNIVERSITY, priority 2022, published 2026)
Each block holds one molecule with its values, some of them ahead of it.

Columns and labels:
[1] = molecular target: T1, cMLCK (Homo sapiens, UniProt Q32MK0); experiment: cMLCK activity, ADP-Glo kinase assay; assay type: biochemical; settings: for cMLCK activity compared with the compound of Synthesis Example 1: ADP-Glo kinase assay, relative to Synthesis Example 1 (LEU-0992); for cMLCK activation action, dose dependence: ADP-Glo assay; for specificity for cMLCK: versus smMLCK and skMLCK
T1 construct: BTN (vendor prefix; by own knowledge, biotinylated); purchased Carna Bioscience #02-460-20N
Protocol: The cMLCK activation action by 8-hydroxyquinoline compounds was measured by using the ADP-Glo kinase assay (Promega) according to the manufacturer's protocol.
(§1) Purchased purified human cMLCK (BTN-cMLCK, #02-460-20N, Carna Bioscience) as well as in-house purified calmodulin (NM 006888) and cardiac myosin regulatory light chain (MLC2v) (NM 000432) were used to perform phosphorylation to thereby establish an in vitro kinase assay system for measuring cMLCK activity according to the ADP-Glo assay (Promega) or Kumagai method. This system was then applied to high-throughput screening (HTS). The HTS was performed by using multiple domestic compound libraries (compound concentration: 10 μM), and structural development of candidate compounds was performed, thereby developing cMLCK activators based on the 8-hydroxyquinoline (8HQ) skeleton.

[2] = molecular target: T2, human skeletal muscle-type MLCK (skMLCK) (Homo sapiens, UniProt Q9H1R3); experiment: specificity: in-vitro kinase reaction with skMLCK and its substrate MYLPF, ADP-Glo assay; assay type: biochemical; settings: skMLCK with substrate MYLPF
T2 construct: made in house
Protocol: (§2) Next, the specificity of the two 8HQ compounds (LEU-1142 and LEU-1170) for human smooth muscle-type MLCK (smMLCK, NM 053025) and human skeletal muscle-type MLCK (skMLCK, NM 033118), which are cMLCK family proteins, was examined (FIGS. 7-1 and 7-2). In-vitro kinase reactions were performed using smMLCK and its substrate MYL9 (NM 006097), and skMLCK and its substrate MYLPF (NM 013292), which had been all purified in-house, and their activity was measured according to the ADP-Glo assay.

[3] = molecular target: T1, cMLCK; experiment: enzymatic study (Michaelis-Menten kinetics) of cMLCK; assay type: biochemical
Protocol: as §1

[4] = molecular target: T1, cMLCK; experiment: phosphorylation of MLC2v by phos-tag PAGE; assay type: biochemical
[5] = molecular target: T3, human smooth muscle-type MLCK (smMLCK) (Homo sapiens, UniProt Q15746); experiment: specificity: in-vitro kinase reaction with smMLCK and its substrate MYL9, ADP-Glo assay; assay type: biochemical; settings: smMLCK with substrate MYL9, ADP-Glo assay
T3 construct: made in house
Protocol: as §2

[6] = tested on: wild-type human iPS cardiomyocytes; experiment: intracellular calcium dynamics (Cal-520, FDSS kinetic plate imager); assay type: cell-based; settings: wild-type iPSC-CMs, various concentrations, with pacing
Protocol: CTAs: average changes of calcium transient amplitude at systole, PWD50: pulse width duration measured at 50% CTAs
Wild-type iPSC-CMs were seeded on a 96-well plate at a density of 5×10^4 cells/well and cultured in DMEM with 10% FBS for 24 hours. Subsequently, Cal-520 (ab171868, Abcam) was then added to a final concentration of 5 μM, and the cells were cultured for an additional hour. After removing the medium and washing with HHBS buffer, the buffer was replaced with FluoroBrite DMEM containing various concentrations of LEUO-1154, isoproterenol (positive control group: catecholamine stimulation), or DMSO (negative control group). Intracellular calcium dynamics was then measured with pacing by using an FDSS/ρCell kinetic plate imager (Hamamatsu Photonics K. K.).

[7] = phase 3 clinical trial; cited from earlier work

specificity for skMLCK [2]: Neither compound showed specificity
effect on Km [3]: did not affect Km
cMLCK activation action, dose dependence [1]: dose-dependent
specificity for cMLCK [1]: high specificity for cMLCK
phosphorylation of MLC2v [4]: increase the phosphorylation of MLC2v
specificity for smMLCK [5]: Neither compound showed specificity
Structure (SMILES): CCCCC(=O)NC(c1ccc(-n2ccnc2)cc1)c1cc([N+](=O)[O-])c2cccnc2c1O (stereo not drawn) [LEU-1142, N-{[4-(1H-imidazol-1-yl)phenyl] (8-hydroxy-5-nitroquinolin-7-yl)methyl}pentanamide]

specificity for skMLCK [2]: Neither compound showed specificity
effect on Km [3]: did not affect Km
cMLCK activation action, dose dependence [1]: dose-dependent
specificity for cMLCK [1]: high specificity for cMLCK
phosphorylation of MLC2v [4]: increase the phosphorylation of MLC2v
specificity for smMLCK [5]: Neither compound showed specificity
Structure (SMILES): CCCCC(=O)NC(c1ccc(N2CCOCC2)nc1)c1cc([N+](=O)[O-])c2cccnc2c1O (stereo not drawn) [LEU-1170, N-[(8-hydroxy-5-nitroquinolin-7-yl) (6-morpholinopyridin-3-yl)methyl]pentanamide]

cMLCK activity compared with the compound of Synthesis Example 1 [1]: equivalent
Structure (SMILES): COc1ccc(C(NC(=O)C(C)C)c2cc([N+](=O)[O-])c3cccnc3c2O)cc1 (stereo not drawn) [LEU-1220, N-[(8-hydroxy-5-nitroquinolin-7-yl) (4-methoxyphenyl)methyl]isobutyramide]

cMLCK activity compared with the compound of Synthesis Example 1 [1]: weaker
Structure (SMILES): COc1ccc(C(NC(C)=O)c2cc([N+](=O)[O-])c3cccnc3c2O)cc1 (stereo not drawn) [LEU-0990, N-[(8-hydroxy-5-nitroquinolin-7-yl) (4-methoxyphenyl)methyl]acetamide]

cMLCK activity compared with the compound of Synthesis Example 1 [1]: weaker
Structure (SMILES): CCCCC(=O)NC(c1ccc(OC)cc1)c1cc(Cl)c2cccnc2c1O (stereo not drawn) [LEU-1018, N-[(5-chloro-8-hydroxyquinolin-7-yl) (4-methoxyphenyl)methyl]pentanamide]

Continued, molecule first:

Structure (SMILES): Oc1c(C(Nc2ccccn2)c2cccnc2)cc(Cl)c2cccnc12 (stereo not drawn) [LEU-0998, 5-chloro-7-[(pyridin-2-ylamino) (pyridin-3-yl)methyl]quinolin-8-ol]
cMLCK activity compared with the compound of Synthesis Example 1 [1]: weaker

Structure (SMILES): CCCCC(=O)NC(c1ccc(OC)cc1)c1ccc2cccnc2c1O (stereo not drawn) [LEU-1128, N-[(8-hydroxyquinolin-7-yl) (4-methoxyphenyl)methyl]pentanamide]
cMLCK activity compared with the compound of Synthesis Example 1 [1]: weaker

Structure (SMILES): CC(C)NCC(O)c1ccc(O)c(O)c1 (stereo not drawn) [isoproterenol, reference compound]
calcium dynamics [6]: enhanced calcium dynamics

Structure (SMILES): Oc1c(CN2CCC(Cc3ccccc3)CC2)cc(Cl)c2cccnc12 [LEU-0999, 7-[(4-benzylpiperidin-1-yl)methyl]-5-chloroquinolin-8-ol]
cMLCK activity compared with the compound of Synthesis Example 1 [1]: weaker

Structure (SMILES): Oc1c(C(c2ccc(C(F)(F)F)cc2)N2CCCCC2)ccc2cccnc12 (stereo not drawn) [LEU-0943, 7-(piperidin-1-yl [4-(trifluoromethyl)phenyl]methyl}quinolin-8-ol]
cMLCK activity compared with the compound of Synthesis Example 1 [1]: weaker

Structure (SMILES): Oc1ccccc1C(Nc1nccs1)c1ccc2cccnc2c1O (stereo not drawn) [LEU-0945, 7-[(2-hydroxyphenyl) (thiazol-2-ylamino)methyl]quinolin-8-ol]
cMLCK activity compared with the compound of Synthesis Example 1 [1]: weaker

Structure (SMILES): O=[N+]([O-])c1cccc(C(Nc2nccs2)c2ccc3cccnc3c2O)c1 (stereo not drawn) [LEU-0944, 7-[(3-nitrophenyl) (thiazol-2-ylamino)methyl]quinolin-8-ol]
cMLCK activity compared with the compound of Synthesis Example 1 [1]: equivalent

Structure (SMILES): CCC(=O)NC(c1ccc(OC)cc1)c1cc([N+](=O)[O-])c2cccnc2c1O (stereo not drawn) [LEU-0993]
cMLCK activity compared with the compound of Synthesis Example 1 [1]: equivalent

Structure (SMILES): COC(=O)N1CCN(Cc2cccc(NC(=O)Nc3ccc(C)nc3)c2F)CC1 [Omecamtiv mecarbil (OM), Omecamtiv mecarbil]
time to onset of heart failure [7]: prolonging the time to onset of heart failure without worsening prognosis

Structure (SMILES): Oc1c(C(Nc2nccs2)c2ccccc2)ccc2cccnc12 (stereo not drawn) [LEU-1008, 7-[phenyl(thiazol-2-ylamino)methyl]quinolin-8-ol]
cMLCK activity compared with the compound of Synthesis Example 1 [1]: equivalent

Structure (SMILES): Oc1cccnc1NC(c1ccc(F)cc1)c1ccc2cccnc2c1O (stereo not drawn) [LEU-0942, 7-{(4-fluorophenyl) [(3-hydroxypyridin-2-yl)amino]methyl}quinolin-8-ol]
cMLCK activity compared with the compound of Synthesis Example 1 [1]: weaker

Structure (SMILES): COc1ccc(C(Nc2ccccn2)c2cc(Cl)c3cccnc3c2O)cc1[N+](=O)[O-] (stereo not drawn) [LEU-0997, 5-chloro-7-[(4-methoxy-3-nitrophenyl) (pyridin-2-ylamino)methyl]quinolin-8-ol]
cMLCK activity compared with the compound of Synthesis Example 1 [1]: equivalent
